# BindingDB's records for doi:10.1021/acschembio.5b00514 (Technische Universität München, 2015)
# Columns and labels:
# Assay in all cases: Activity-based Protein Profiling (ABPP)
# Settings in all cases: pH 7.4; 37 °C
# [1] = molecular target: T1, Rhomboid-related protein 1 (Mus musculus, UniProt Q8VC82)
# T1 sequence (Q8VC82 whole entry): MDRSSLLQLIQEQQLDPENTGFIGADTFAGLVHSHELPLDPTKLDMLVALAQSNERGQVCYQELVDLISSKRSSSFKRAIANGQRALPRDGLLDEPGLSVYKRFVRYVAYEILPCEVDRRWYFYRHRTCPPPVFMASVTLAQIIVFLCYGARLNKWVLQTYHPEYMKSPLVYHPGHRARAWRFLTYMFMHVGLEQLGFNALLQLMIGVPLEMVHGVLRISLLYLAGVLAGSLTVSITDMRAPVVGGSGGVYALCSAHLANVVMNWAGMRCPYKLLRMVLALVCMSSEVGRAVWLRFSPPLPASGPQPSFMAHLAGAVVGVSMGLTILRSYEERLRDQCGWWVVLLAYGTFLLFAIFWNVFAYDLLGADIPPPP
# From the text: (§1) We selected several inhibitor structures and determined their apparent IC50 by competitive ABPP.
# [2] = molecular target: T2, Rhomboid protease GlpG (Escherichia coli (strain K12), UniProt P09391)
# T2 sequence (P09391 whole entry): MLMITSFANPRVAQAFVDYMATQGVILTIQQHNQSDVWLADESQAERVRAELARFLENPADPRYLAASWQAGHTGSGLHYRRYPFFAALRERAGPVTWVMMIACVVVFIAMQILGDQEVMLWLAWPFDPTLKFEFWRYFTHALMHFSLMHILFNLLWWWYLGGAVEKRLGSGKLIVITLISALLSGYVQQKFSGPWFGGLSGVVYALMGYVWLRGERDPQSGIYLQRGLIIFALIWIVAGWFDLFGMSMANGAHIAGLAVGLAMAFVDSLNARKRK
# From the text: as §1
# [3] = molecular target: T3, Rhomboid domain-containing protein (Pyrococcus horikoshii (strain ATCC 700860 / DSM 12428 / JCM 9974 / NBRC 100139 / OT-3), UniProt O59166)
# T3 sequence (O59166 whole entry): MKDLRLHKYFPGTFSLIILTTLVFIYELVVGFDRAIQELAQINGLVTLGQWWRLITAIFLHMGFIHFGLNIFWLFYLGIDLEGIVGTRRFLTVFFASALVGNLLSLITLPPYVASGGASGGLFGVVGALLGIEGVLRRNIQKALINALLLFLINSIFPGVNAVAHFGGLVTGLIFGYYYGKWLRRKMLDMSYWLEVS
# From the text: as §1
# [4] = molecular target: T4, Rhomboid domain-containing protein (Thermotoga maritima (strain ATCC 43589 / DSM 3109 / JCM 10099 / NBRC 100826 / MSB8), UniProt Q9WZ53)
# T4 sequence (Q9WZ53 whole entry): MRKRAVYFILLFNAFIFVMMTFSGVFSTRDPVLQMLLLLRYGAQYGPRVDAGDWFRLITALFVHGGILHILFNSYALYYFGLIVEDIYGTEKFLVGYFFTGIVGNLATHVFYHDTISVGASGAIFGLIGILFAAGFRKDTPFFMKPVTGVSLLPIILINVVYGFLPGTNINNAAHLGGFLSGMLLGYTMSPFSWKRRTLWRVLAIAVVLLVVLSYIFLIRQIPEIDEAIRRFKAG
# From the text: as §1
# [5] = molecular target: T5, AN1-type domain-containing protein (Archaeoglobus fulgidus (strain ATCC 49558 / DSM 4304 / JCM 9628 / NBRC 100126 / VC-16), UniProt O29251)
# T5 sequence (O29251 whole entry): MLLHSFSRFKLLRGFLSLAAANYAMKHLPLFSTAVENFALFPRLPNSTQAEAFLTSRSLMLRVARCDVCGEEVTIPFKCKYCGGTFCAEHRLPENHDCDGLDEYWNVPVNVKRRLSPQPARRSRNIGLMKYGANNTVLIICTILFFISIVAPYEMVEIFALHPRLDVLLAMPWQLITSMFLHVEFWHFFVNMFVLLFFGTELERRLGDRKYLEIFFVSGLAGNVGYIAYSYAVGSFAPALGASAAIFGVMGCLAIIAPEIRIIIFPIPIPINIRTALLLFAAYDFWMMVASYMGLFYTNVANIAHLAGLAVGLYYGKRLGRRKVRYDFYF
# From the text: as §1
# [6] = molecular target: T6, GlpG protein (Vibrio cholerae, UniProt Q9KVP2)
# T6 sequence (Q9KVP2 whole entry): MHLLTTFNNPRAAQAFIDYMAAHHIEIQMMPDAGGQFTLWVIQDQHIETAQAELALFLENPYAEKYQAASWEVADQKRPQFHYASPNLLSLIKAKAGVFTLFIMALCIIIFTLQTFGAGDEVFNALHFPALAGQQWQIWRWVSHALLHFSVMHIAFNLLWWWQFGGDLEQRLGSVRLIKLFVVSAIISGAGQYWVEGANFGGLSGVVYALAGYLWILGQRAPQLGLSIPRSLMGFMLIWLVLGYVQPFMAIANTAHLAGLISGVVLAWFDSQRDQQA
# From the text: as §1
# [7] = molecular target: T7, Rhomboid protease AarA (Providencia stuartii, UniProt P46116)
# T7 sequence (P46116 whole entry): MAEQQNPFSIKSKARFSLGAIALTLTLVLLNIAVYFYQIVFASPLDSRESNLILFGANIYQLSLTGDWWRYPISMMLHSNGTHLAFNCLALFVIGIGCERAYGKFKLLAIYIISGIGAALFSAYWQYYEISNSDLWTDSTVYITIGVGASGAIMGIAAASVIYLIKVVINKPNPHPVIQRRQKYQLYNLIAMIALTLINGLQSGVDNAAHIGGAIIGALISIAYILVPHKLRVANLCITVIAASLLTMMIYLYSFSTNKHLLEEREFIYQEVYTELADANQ
# From the text: as §1
# [8] = molecular target: Rhomboid protease GluP [F193S,L370F,L379S,R499W] (Bacillus subtilis (strain 168), UniProt P54493, F193S/L370F/L379S/R499W)
# Rhomboid protease GluP [F193S,L370F,L379S,R499W], sequence (P54493 whole entry F192S/L370F/L379S/R499W): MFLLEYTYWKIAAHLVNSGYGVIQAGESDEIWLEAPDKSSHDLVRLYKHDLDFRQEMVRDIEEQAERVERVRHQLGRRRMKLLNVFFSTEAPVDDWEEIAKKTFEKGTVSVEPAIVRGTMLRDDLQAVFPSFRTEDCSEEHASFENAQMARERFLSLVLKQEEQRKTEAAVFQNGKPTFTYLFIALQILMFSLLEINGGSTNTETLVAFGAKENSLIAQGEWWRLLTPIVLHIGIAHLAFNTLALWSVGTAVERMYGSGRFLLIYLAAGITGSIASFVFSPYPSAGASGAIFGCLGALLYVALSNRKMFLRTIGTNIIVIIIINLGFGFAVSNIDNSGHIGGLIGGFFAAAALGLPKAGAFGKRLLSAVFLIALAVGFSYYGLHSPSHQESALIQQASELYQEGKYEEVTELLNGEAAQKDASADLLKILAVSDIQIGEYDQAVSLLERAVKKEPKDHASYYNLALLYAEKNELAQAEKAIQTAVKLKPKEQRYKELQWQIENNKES
# From the text: as §1
# [9] = molecular target: T8, Rhomboid domain-containing protein (Aquifex aeolicus (strain VF5), UniProt O67346)
# T8 sequence (O67346 whole entry): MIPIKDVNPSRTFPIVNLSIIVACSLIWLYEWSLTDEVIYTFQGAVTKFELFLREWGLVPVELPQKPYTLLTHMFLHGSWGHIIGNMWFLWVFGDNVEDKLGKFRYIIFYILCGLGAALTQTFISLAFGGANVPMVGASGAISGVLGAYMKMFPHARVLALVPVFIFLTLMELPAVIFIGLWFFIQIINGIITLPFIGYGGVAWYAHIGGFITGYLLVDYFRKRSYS
# From the text: as §1
# [10] = molecular target: T9, Rhomboid protease GlpG (Haemophilus influenzae, UniProt A0A2R3FW87)
# T9 sequence (A0A2R3FW87 whole entry): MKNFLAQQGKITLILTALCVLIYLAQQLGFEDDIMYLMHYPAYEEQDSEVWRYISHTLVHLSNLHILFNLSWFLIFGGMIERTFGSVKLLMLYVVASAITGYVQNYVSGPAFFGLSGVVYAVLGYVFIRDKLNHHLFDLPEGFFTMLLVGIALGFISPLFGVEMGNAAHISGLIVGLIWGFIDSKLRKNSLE
# From the text: as §1
# [11] = molecular target: T10, Rhomboid-related protein 3 (Mus musculus, UniProt P58873)
# T10 sequence (P58873 whole entry): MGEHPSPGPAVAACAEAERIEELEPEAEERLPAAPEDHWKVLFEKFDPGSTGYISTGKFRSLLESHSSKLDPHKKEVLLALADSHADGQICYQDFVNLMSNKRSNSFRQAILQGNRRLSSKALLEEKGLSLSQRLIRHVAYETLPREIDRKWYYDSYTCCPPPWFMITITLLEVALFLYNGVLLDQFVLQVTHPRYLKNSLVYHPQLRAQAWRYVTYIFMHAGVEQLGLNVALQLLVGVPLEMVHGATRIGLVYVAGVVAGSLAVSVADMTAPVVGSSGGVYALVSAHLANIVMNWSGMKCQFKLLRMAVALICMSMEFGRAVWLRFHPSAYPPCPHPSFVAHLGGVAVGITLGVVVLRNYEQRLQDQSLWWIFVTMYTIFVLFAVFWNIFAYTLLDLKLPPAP
# From the text: as §1
Structure (SMILES),IC50 [1],IC50 [2],IC50 [3],IC50 [4],IC50 [5],IC50 [6],IC50 [7],IC50 [8],IC50 [9],IC50 [10],IC50 [11]
O=c1oc(Cl)c(Cl)c2ccccc12,28 µM,19 µM,16 µM,1 µM,8.1 µM,27 µM,10 µM,4.1 µM,1100 nM,0.66 µM,70 µM
O=c1oc(OCCCCCc2ccccc2)c(Cl)c2ccc([N+](=O)[O-])cc12 [4‐Chloro‐7‐nitro‐3‐[(5‐phenylpentyl)oxy]isochromen‐1‐one (21)],39 µM,,25 µM,28 µM,,76 µM,10 µM,25 µM,1700 nM,4.6 µM,24 µM
C#CCCC[C@@H]1OC(=O)[C@H]1CCCC [(4S)‐3‐butyl‐4‐(pent‐4‐yn‐1‐yl)oxetan‐2‐one (48)],,44 µM,,48 µM,,,,,,,
"C#CCCC[C@@H]1OC(=O)[C@H]1c1cc(OC)c(OC)c(OC)c1 [(4S)‐4‐(pent‐4‐yn‐1‐yl)‐3‐(3,4,5‐trimethoxyphenyl)oxetan‐2‐one (45)]",,,,,5 µM,,,,,65 µM,
C#CCCC[C@@H]1OC(=O)[C@H]1CCCCC [(4S)‐4‐(pent‐4‐yn‐1‐yl)‐3‐pentyloxetan‐2‐one (47)],,,,27 µM,,,,,,,
